Assay results taken from patent US20210322651A1, “SUPPRESSION OF NEOINTIMAL FORMATION FOLLOWING VASCULAR SURGERU USING CDK8 INHIBITORS” (Senex Biotechnology, Inc., priority 2014, published 2021).

What was measured:
[1] = test system: resident VSCs (Sca-1+, NFM+, Sox17+ cells) in jugular vein isografts; experiment: Immunofluorescence staining of VSC and SMC markers (Sca-1, Ki67, SMA, NFM, Sox17) in jugular vein isografts after drug treatment; type: in vivo, C57BL/6J mice
Method: Male C57BL/6J mice were purchased from Vital River Laboratory Animal Technology Co. Ltd, Beijing, China, and housed under a 12:12 h light-dark cycle and given free access to food and water. All animal experiments were performed according to National Institutes of Health Guidelines for the Care and Use of Laboratory Animals and approved by the Institutional Animal Care and Usage Committees at Shandong University and the University of South Carolina, USA. The jugular vein transplantation was performed using different male C57BL/6J mice as donors and recipients. Briefly, 12-wk-old male C57BL/6J mice were anesthetized with pentobarbital sodium (50 mg/kg body weight, i.p.). The operation was performed under a dissecting microscope (SZ2-ILST, Olympus Corporation, Tokyo, Japan). The right common carotid artery of a male C57BL/6J mouse was mobilized and divided. […]
(§1) Tissue sections were subjected to hematoxylin and eosin (H&E) or immunofluorescence staining as previously described^41. […] Fluorescent images were acquired by Nikon Eclipse Ti or UltraVIEW®VOX confocal microscope and analyzed with the Volocity software (PerkinElmer, Waltham, Mass., USA). […]

jugular vein isografts = experiment: Neointimal formation in jugular vein isografts (cuff model; H&E and SMA staining, morphological analysis); type: in vivo, C57BL/6J mice
Method: Male C57BL/6J mice were purchased from Vital River Laboratory Animal Technology Co. Ltd, Beijing, China, and housed under a 12:12 h light-dark cycle and given free access to food and water. All animal experiments were performed according to National Institutes of Health Guidelines for the Care and Use of Laboratory Animals and approved by the Institutional Animal Care and Usage Committees at Shandong University and the University of South Carolina, USA. The jugular vein transplantation was performed using different male C57BL/6J mice as donors and recipients. Briefly, 12-wk-old male C57BL/6J mice were anesthetized with pentobarbital sodium (50 mg/kg body weight, i.p.). The operation was performed under a dissecting microscope (SZ2-ILST, Olympus Corporation, Tokyo, Japan). The right common carotid artery of a male C57BL/6J mouse was mobilized and divided. A 1-mm cuff with a 1-mm handle (0.65 mm in diameter outside and 0.5 mm inside, F 800/200/100/200, Portex Ltd) was placed on both ends of the artery, and the ends were reverted over the cuff and ligated with an 8-0 silk ligature (130715, 130715, LingQiao). External jugular vein (1 cm) from a donor mouse was harvested and washed with saline solution, and grafted between the 2 ends of the carotid artery without changing the direction of blood flow. The ischemia time of vein segments was less than 15 min. The results are shown in Examples 7-9.
Mice at 0, 1, 3, 7, 14, 21 and 42 days after transplantation (four randomly chosen mice at each time point) were anesthetized with pentobarbital sodium (50 mg/kg body weight, i.p.) and euthanized by exsanguination. […]
From the proximal end, the last section with the cuff tube was counted as #0. […]
as §1

Sca-1+ VSCs = experiment: Sca-1+ cell growth in stem cell growth medium (daily cell count for 8 days; [3H]thymidine uptake); type: cell-based, mouse
Method: Aortic adventitial Sca-1^+ cells were isolated and cultured as previously described^24. Briefly, the aortic arch and root together with a proportion of the heart from male 8-wk-old C57BL/6J mice were removed. Under a dissection microscope, adventitial tissues were carefully harvested. The adventitial tissues were cut into pieces (about 0.5 mm^3) and explanted onto a 3.5 cm dish in a CO2 incubator at 37° C. for 2 h. The stem cell growth medium (CellGro SCGM, CellGenix, Germany) containing 10% FBS (Gibco, USA), 10 ng/ml leukemia inhibitory factor (Lif) (Millipore, Temecula, Calif., USA) and 0.1 mmol/L 2-mercaptoethanol (Invitrogen, USA) was added and incubated for 5-7 days. Medium was changed every 2 days. […] The purity and viability of isolated Sca-1^+ cells were evaluated by immunostaining and trypan blue exclusion, respectively. […]
The P5 Sca-1^+ VSCs or P32 RASMCs were serum-starved for 24 h, and then cultured with full stem cell or regular growth medium with or without simvastatin for 24 h. […] The radioactivity was measured as previously described^41.
P7 Sca-1^+ VSCs (4×10^4/well) were seeded in stem cell medium (SCGM+10% FBS+10 ng/ml Lif+0.1 mmol/L 2-mercaptoethanol) with or without simvastatin (3 μmol/L) or Senexin A (2.5 μmol/L) in 6-well plates. […] The number of cells was counted daily for 8 days.

rat aortic SMCs (RASMCs) = experiment: RASMC proliferation ([3H]thymidine uptake); type: cell-based
Method: Rat aortic SMCs (RASMCs) were isolated from the thoracic aorta and cultured as described elsewhere^40. Enzymatically isolated SMCs from adult male Wistar rats were cultured in high glucose (4.5 g/L) Dulbecco's modified Eagle's medium (DMEM) (Cat#: 11995, Invitrogen, Grand Island, N.Y., USA) with 10% FBS (Invitrogen) in a CO2 incubator at 37° C. Subculture was performed when the cells were grown to the 70˜80% confluent state. We used the RASMCs at passage (P) 32 to do the [^3H]thymidine uptake assay. The P5 Sca-1^+ VSCs or P32 RASMCs were serum-starved for 24 h, and then cultured with full stem cell or regular growth medium with or without simvastatin for 24 h. [^3H]thymidine (1 μCi/ml) were added during the last 4 h of culture. The radioactivity was measured as previously described^41. […] Serum-starved RASMCs at passage 32 were treated with or without 10% FBS and Senexin (Senx A, 2.5 μM) for 24 h. n=4, *p<0.05 vs. control (−) in the same group.

[2] = Senexin B, concentration not given

SMILES	Sca-1+ cell differentiation into SMCs ([1]; local Senexin A, 7 days)	neointimal formation in vein isografts (jugular vein isografts; Senexin A (3 μmon) peri-vascular in Pluronic F-127 gel immediately after transplantation, 4 weeks)	duration of inhibitory effect on neointimal formation in vein grafts (jugular vein isografts; short-term peri-vascular Senexin A, after transplantation)	Sca-1+ cell proliferation (Sca-1+ VSCs; Senexin A 2.5 μM, growth curve 8 days)	rat aortic SMC (RASMC) growth (rat aortic SMCs (RASMCs); Senexin A 2.5 μM, 24 h, 10% FBS, passage 32)	Sca-1+ cell differentiation into SMCs ([1]; Senexin B 20 mg/kg/d intragastric from 3 days prior, 14 and 28 days)	neointimal formation in vein isografts (jugular vein isografts; Senexin B 20 mg/kg/d intragastric, started 3 days prior to transplantation, 4 wk)	Sca-1+ cell growth (Sca-1+ VSCs; [2])	SMC proliferation (rat aortic SMCs (RASMCs); [2])
N#Cc1ccc2ncnc(NCCc3ccccc3)c2c1 [Senexin A]	inhibited	suppressed neointimal formation	100 days	suppressed	without affecting				
CN1CCN(C(=O)c2ccc3cc(CCNc4ncnc5ccc(C#N)cc45)ccc3c2)CC1 [Senexin B]						inhibited	suppressed neointimal formation	inhibited	had no impact
